# Patent publication US20070117776A1, “Low Dose Therapy Of DNA Methylation Inhibitors” (priority 2005, published 2007)
# Read-outs that look alike come from different tables or passages of the source.
# Type: physicochemical
# Procedure: Maintaining the solution at low temperature and buffering the drug can control degradation kinetics of aqueous solutions but the stability achieved is not sufficient to render the product stable during its entire proposed shelf life. A dry solid formulation of decitabine which is stable was achieved by lyophilization of an aqueous solution. The process of lyophilization to obtain a solid form is considered essential for maximizing the stability of the product.
# A bulk solution of 5 mg/mL of decitabine was prepared during compounding. To minimize degradation during compounding of the bulk solution prior to lyophilization, the bulk solution was maintained at low temperature, and the time the drug remains in solution prior to lyophilization was minimized. Maximum solution stability was achieved by dissolving the drug in a pH 6.8-7.0 phosphate buffer solution at 0-4° C.
# Based on the results, appropriate recommendations for the preparation and storage of the reconstituted and diluted solutions can be made to pharmacists and clinical practitioners. The product was reconstituted in 10 mL WFI and diluted with one of the three pre-chilled infusion fluids indicated in Table 1 and Table 2 to two different concentrations, 0.1 mg/mL and 1 mg/mL covering the entire concentration range expected to be used in the clinical setting. The diluted solutions were stored for one to ten hours in infusion bags in the refrigerator at 2-8° C. to simulate conditions prior to infusion and then removed and placed at room temperature to simulate conditions during infusion. Bags placed in the refrigerator for one hour were removed and placed at room temperature and sampled thereafter for the next three hours at room temperature (Experiment No. 1) while the bags placed in the refrigerator for ten hours were removed and sampled for the next two hours at room temperature (Experiment No. 2).
# The method used to estimate degradation products is based on percent peak area measurements assuming the degradation products have a response factor of 1, with respect to decitabine.
# Table 1 and Table 2 also show the pH data obtained after the preparation of the infusion, which is consistently within ±0.3 pH units of neutral pH.
# [1] = 0.1 mg/mL in 0.9% NaCl, Experiment 1 (2-8° C. one hour, then room temperature), at 0 h
# [2] = 0.1 mg/mL in 0.9% NaCl, Experiment 1 (2-8° C. one hour, then room temperature), at 1 h
# [3] = 0.1 mg/mL in 0.9% NaCl, Experiment 1 (2-8° C. one hour, then room temperature), at 2 h
# [4] = 0.1 mg/mL in 0.9% NaCl, Experiment 1 (2-8° C. one hour, then room temperature), at 3 h
# [5] = 0.1 mg/mL in 0.9% NaCl, Experiment 1 (2-8° C. one hour, then room temperature), at 4 h
# [6] = 0.1 mg/mL in 0.9% NaCl, Experiment 2 (2-8° C. ten hours, then room temperature), at 0 h
# [7] = 0.1 mg/mL in 0.9% NaCl, Experiment 2 (2-8° C. ten hours, then room temperature), at 10 h
# [8] = 0.1 mg/mL in 0.9% NaCl, Experiment 2 (2-8° C. ten hours, then room temperature), at 11 h
# [9] = 0.1 mg/mL in 0.9% NaCl, Experiment 2 (2-8° C. ten hours, then room temperature), at 12 h
# [10] = 0.1 mg/mL in 5% Dextrose, Experiment 1 (2-8° C. one hour, then room temperature), at 0 h
# [11] = 0.1 mg/mL in 5% Dextrose, Experiment 1 (2-8° C. one hour, then room temperature), at 1 h
# [12] = 0.1 mg/mL in 5% Dextrose, Experiment 1 (2-8° C. one hour, then room temperature), at 2 h
# [13] = 0.1 mg/mL in 5% Dextrose, Experiment 1 (2-8° C. one hour, then room temperature), at 3 h
# [14] = 0.1 mg/mL in 5% Dextrose, Experiment 1 (2-8° C. one hour, then room temperature), at 4 h
# [15] = 0.1 mg/mL in 5% Dextrose, Experiment 2 (2-8° C. ten hours, then room temperature), at 0 h
# [16] = 0.1 mg/mL in 5% Dextrose, Experiment 2 (2-8° C. ten hours, then room temperature), at 10 h
# [17] = 0.1 mg/mL in 5% Dextrose, Experiment 2 (2-8° C. ten hours, then room temperature), at 11 h
# [18] = 0.1 mg/mL in 5% Dextrose, Experiment 2 (2-8° C. ten hours, then room temperature), at 12 h
# [19] = 0.1 mg/mL in Lactated Ringer's, Experiment 1 (2-8° C. one hour, then room temperature), at 0 h
# [20] = 0.1 mg/mL in Lactated Ringer's, Experiment 1 (2-8° C. one hour, then room temperature), at 1 h
# [21] = 0.1 mg/mL in Lactated Ringer's, Experiment 1 (2-8° C. one hour, then room temperature), at 2 h
# [22] = 0.1 mg/mL in Lactated Ringer's, Experiment 1 (2-8° C. one hour, then room temperature), at 3 h
# [23] = 0.1 mg/mL in Lactated Ringer's, Experiment 1 (2-8° C. one hour, then room temperature), at 4 h
# [24] = 0.1 mg/mL in Lactated Ringer's, Experiment 2 (2-8° C. ten hours, then room temperature), at 0 h
# [25] = 0.1 mg/mL in Lactated Ringer's, Experiment 2 (2-8° C. ten hours, then room temperature), at 10 h
# [26] = 0.1 mg/mL in Lactated Ringer's, Experiment 2 (2-8° C. ten hours, then room temperature), at 11 h
# [27] = 0.1 mg/mL in Lactated Ringer's, Experiment 2 (2-8° C. ten hours, then room temperature), at 12 h
# [28] = about 1.0 mg/mL in 0.9% NaCl, Experiment 1 (2-8° C. one hour, then room temperature), at 0 h
# [29] = about 1.0 mg/mL in 0.9% NaCl, Experiment 1 (2-8° C. one hour, then room temperature), at 1 h
# [30] = about 1.0 mg/mL in 0.9% NaCl, Experiment 1 (2-8° C. one hour, then room temperature), at 2 h
# [31] = about 1.0 mg/mL in 0.9% NaCl, Experiment 1 (2-8° C. one hour, then room temperature), at 3 h
# [32] = about 1.0 mg/mL in 0.9% NaCl, Experiment 1 (2-8° C. one hour, then room temperature), at 4 h
# [33] = about 1.0 mg/mL in 0.9% NaCl, Experiment 2 (2-8° C. ten hours, then room temperature), at 0 h
# [34] = about 1.0 mg/mL in 0.9% NaCl, Experiment 2 (2-8° C. ten hours, then room temperature), at 10 h
# [35] = about 1.0 mg/mL in 0.9% NaCl, Experiment 2 (2-8° C. ten hours, then room temperature), at 11 h
# [36] = about 1.0 mg/mL in 0.9% NaCl, Experiment 2 (2-8° C. ten hours, then room temperature), at 12 h
# [37] = about 1.0 mg/mL in 5% Dextrose, Experiment 1 (2-8° C. one hour, then room temperature), at 0 h
# [38] = about 1.0 mg/mL in 5% Dextrose, Experiment 1 (2-8° C. one hour, then room temperature), at 1 h
# [39] = about 1.0 mg/mL in 5% Dextrose, Experiment 1 (2-8° C. one hour, then room temperature), at 2 h
# [40] = about 1.0 mg/mL in 5% Dextrose, Experiment 1 (2-8° C. one hour, then room temperature), at 3 h
# [41] = about 1.0 mg/mL in 5% Dextrose, Experiment 1 (2-8° C. one hour, then room temperature), at 4 h
# [42] = about 1.0 mg/mL in 5% Dextrose, Experiment 2 (2-8° C. ten hours, then room temperature), at 0 h
# [43] = about 1.0 mg/mL in 5% Dextrose, Experiment 2 (2-8° C. ten hours, then room temperature), at 10 h
# [44] = about 1.0 mg/mL in 5% Dextrose, Experiment 2 (2-8° C. ten hours, then room temperature), at 11 h
# [45] = about 1.0 mg/mL in 5% Dextrose, Experiment 2 (2-8° C. ten hours, then room temperature), at 12 h
# [46] = about 1.0 mg/mL in Lactated Ringer's, Experiment 1 (2-8° C. one hour, then room temperature), at 0 h
# [47] = about 1.0 mg/mL in Lactated Ringer's, Experiment 1 (2-8° C. one hour, then room temperature), at 1 h
# [48] = about 1.0 mg/mL in Lactated Ringer's, Experiment 1 (2-8° C. one hour, then room temperature), at 2 h
# [49] = about 1.0 mg/mL in Lactated Ringer's, Experiment 1 (2-8° C. one hour, then room temperature), at 3 h
# [50] = about 1.0 mg/mL in Lactated Ringer's, Experiment 1 (2-8° C. one hour, then room temperature), at 4 h
# [51] = about 1.0 mg/mL in Lactated Ringer's, Experiment 2 (2-8° C. ten hours, then room temperature), at 0 h
# [52] = about 1.0 mg/mL in Lactated Ringer's, Experiment 2 (2-8° C. ten hours, then room temperature), at 10 h
# [53] = about 1.0 mg/mL in Lactated Ringer's, Experiment 2 (2-8° C. ten hours, then room temperature), at 11 h
# [54] = about 1.0 mg/mL in Lactated Ringer's, Experiment 2 (2-8° C. ten hours, then room temperature), at 12 h
smiles,measurement,setting,value
"Nc1ncn([C@H]2C[C@H](O)[C@@H](CO)O2)c(=O)n1 [Decitabine, 4-amino-1-(2-deoxy-β-D-erythro-pentofuranosyl)-1,3,5-triazin-2(1H)-one]",degradation in aqueous solution,,degrades rapidly
same,pH after the preparation of the infusion,0.1 mg/mL in 0.9% NaCl,6.7
same,Decitabine Content,[1],97.5%
same,Total Impurities,[1],(2.5%)
same,Decitabine Content,[2],96.9%
same,Total Impurities,[2],(3.2%)
same,Decitabine Content,[3],95.7%
same,Total Impurities,[3],(4.3%)
same,Decitabine Content,[4],94.1%
same,Total Impurities,[4],(6.0%)
same,Decitabine Content,[5],92.5%
same,Total Impurities,[5],(7.7%)
same,Decitabine Content,[6],97.8%
same,Total Impurities,[6],(2.2%)
same,Decitabine Content,[7],93.4%
same,Total Impurities,[7],(6.7%)
same,Decitabine Content,[8],92.3%
same,Total Impurities,[8],(7.7%)
same,Decitabine Content,[9],90.8%
same,Total Impurities,[9],(9.2%)
same,pH after the preparation of the infusion,0.1 mg/mL in 5% Dextrose,6.9
same,Decitabine Content,[10],97.4%
same,Total Impurities,[10],(2.6%)
same,Decitabine Content,[11],97.2%
same,Total Impurities,[11],(2.7%)
same,Decitabine Content,[12],96.4%
same,Total Impurities,[12],(3.6%)
same,Decitabine Content,[13],94.9%
same,Total Impurities,[13],(5.1%)
same,Decitabine Content,[14],93.6%
same,Total Impurities,[14],(6.4%)
same,Decitabine Content,[15],98.2%
same,Total Impurities,[15],(1.9%)
same,Decitabine Content,[16],94.9%
same,Total Impurities,[16],(5.2%)
same,Decitabine Content,[17],94.5%
same,Total Impurities,[17],(5.6%)
same,Decitabine Content,[18],93.3%
same,Total Impurities,[18],(6.7%)
same,pH after the preparation of the infusion,0.1 mg/mL in Lactated Ringer's,6.7
same,Decitabine Content,[19],98.3%
same,Total Impurities,[19],(1.7%)
same,Decitabine Content,[20],98.1%
same,Total Impurities,[20],(1.9%)
same,Decitabine Content,[21],97.0%
same,Total Impurities,[21],(3.0%)
same,Decitabine Content,[22],95.9%
same,Total Impurities,[22],(4.1%)
same,Decitabine Content,[23],94.9%
same,Total Impurities,[23],(5.2%)
same,Decitabine Content,[24],98.0%
same,Total Impurities,[24],(2.1%)
same,Decitabine Content,[25],93.4%
same,Total Impurities,[25],(6.7%)
same,Decitabine Content,[26],92.6%
same,Total Impurities,[26],(7.4%)
same,Decitabine Content,[27],91.8%
same,Total Impurities,[27],(8.3%)
same,pH of maximum solution stability,5 mg/mL,6.8-7.0
same,pH deviation from neutral pH after the preparation of the infusion,Table 1 and Table 2 solutions,≤ 0.3 pH units
same,pH after the preparation of the infusion,about 1.0 mg/mL in 0.9% NaCl,6.7
same,Decitabine Content,[28],98.0%
same,Total Impurities,[28],(2.1%)
same,Decitabine Content,[29],96.8%
same,Total Impurities,[29],(3.3%)
same,Decitabine Content,[30],94.8%
same,Total Impurities,[30],(5.2%)
same,Decitabine Content,[31],92.8%
same,Total Impurities,[31],(7.3%)
same,Decitabine Content,[32],91.1%
same,Total Impurities,[32],(9.0%)
same,Decitabine Content,[33],97.4%
same,Total Impurities,[33],(2.7%)
same,Decitabine Content,[34],93.4%
same,Total Impurities,[34],(6.7%)
same,Decitabine Content,[35],92.5%
same,Total Impurities,[35],(7.6%)
same,Decitabine Content,[36],90.8%
same,Total Impurities,[36],(9.2%)
same,pH after the preparation of the infusion,about 1.0 mg/mL in 5% Dextrose,7.1
same,Decitabine Content,[37],98.0%
same,Total Impurities,[37],(2.0%)
same,Decitabine Content,[38],97.0%
same,Total Impurities,[38],(3.1%)
same,Decitabine Content,[39],95.6%
same,Total Impurities,[39],(4.4%)
same,Decitabine Content,[40],93.7%
same,Total Impurities,[40],(6.4%)
same,Decitabine Content,[41],91.9%
same,Total Impurities,[41],(8.1%)
same,Decitabine Content,[42],97.7%
same,Total Impurities,[42],(2.4%)
same,Decitabine Content,[43],94.5%
same,Total Impurities,[43],(5.5%)
same,Decitabine Content,[44],93.9%
same,Total Impurities,[44],(6.1%)
same,Decitabine Content,[45],93.0%
same,Total Impurities,[45],(7.1%)
same,pH after the preparation of the infusion,about 1.0 mg/mL in Lactated Ringer's,6.8
same,Decitabine Content,[46],98.1%
same,Total Impurities,[46],(2.0%)
same,Decitabine Content,[47],97.3%
same,Total Impurities,[47],(2.7%)
same,Decitabine Content,[48],96.2%
same,Total Impurities,[48],(3.8%)
same,Decitabine Content,[49],95.1%
same,Total Impurities,[49],(4.9%)
same,Decitabine Content,[50],93.7%
same,Total Impurities,[50],(6.4%)
same,Decitabine Content,[51],98.0%
same,Total Impurities,[51],(2.1%)
same,Decitabine Content,[52],94.1%
same,Total Impurities,[52],(5.9%)
same,Decitabine Content,[53],93.3%
same,Total Impurities,[53],(6.8%)
same,Decitabine Content,[54],91.8%
same,Total Impurities,[54],(8.2%)
same,visual inspection of solutions,all reconstituted and diluted solutions,clear and colorless
same,drug content in the infusion solution during infusion,infusions prepared and stored as instructed,above 90%
